For the first assay, the target named is T1, human APJ receptor (Homo sapiens, UniProt P35414).
T1 construct: expressed in transfected cells; host or cells: HEK293
T1 sequence (P35414 1-380): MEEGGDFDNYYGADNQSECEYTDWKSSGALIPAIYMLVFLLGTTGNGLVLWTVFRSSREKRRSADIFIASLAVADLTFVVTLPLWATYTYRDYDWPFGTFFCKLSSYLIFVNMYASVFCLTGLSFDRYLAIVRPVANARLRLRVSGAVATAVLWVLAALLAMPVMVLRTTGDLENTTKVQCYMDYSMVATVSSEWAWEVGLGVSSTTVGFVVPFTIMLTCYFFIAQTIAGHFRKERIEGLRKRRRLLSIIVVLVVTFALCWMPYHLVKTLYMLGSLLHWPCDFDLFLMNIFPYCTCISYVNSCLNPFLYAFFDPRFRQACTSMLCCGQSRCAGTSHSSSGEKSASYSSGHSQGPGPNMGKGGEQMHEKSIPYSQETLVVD
Nature of the assay: Intracellular cAMP Accumulation Assay (APJ hcAMP, HTRF). The format is cell-based. As to conditions: human APJ, cAMP accumulation; potency range class; read-out: hAPJ cAMP EC50 Potency range. The procedure, abridged:
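Stably transfected HEK293 cells (5,000/well) incubated 30 min at room temperature with serially diluted compound, […] and 2 μM forskolin. cAMP measured by HTRF after 60 min with detection reagents, quantified against a cAMP standard curve; EC50 from variable-slope sigmoidal fit of inhibition of forskolin-stimulated cAMP.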
For orientation: TR-FRET usually uses a lanthanide donor and a delayed reading to cut background.
In the case of `CCc1cccc(CC)c1-n1c(COC(C)C)nc(=O)c(C(=O)N2CCC(c3ccncc3)C2)c1O` (single isomer, unassigned) [Example 221, 1-(2,6-diethylphenyl)-6-hydroxy-2-[(propan-2-yloxy)methyl]-5-[3-(pyridin-4-yl)pyrrolidine-1-carbonyl]-1,4-dihydropyrimidin-4-one], the EC50 (commonly the midpoint of the concentration-response curve) fell in the range of 10 to 100 nM.
Consider `COc1cccc(OC)c1-n1c(-c2ccc(F)cc2)nc(=O)c(C(=O)N2CCC(c3ccc(Cl)cc3)C2)c1O` (single isomer, unassigned) [Example 223], for which the EC50 lay in the range of 10 to 100 nM.
In the case of `COc1cccc(OC)c1-n1c(-c2ccc(F)cc2)nc(=O)c(C(=O)N2CCC(c3ccncc3)C2)c1O` (single isomer, unassigned) [Example 224, 1-(2,6-dimethoxyphenyl)-2-(4-fluorophenyl)-6-hydroxy-5-[3-(pyridin-4-yl)pyrrolidine-1-carbonyl]-1,4-dihydropyrimidin-4-one], the EC50 was 10 to 100 nM.
`COc1cccc(OC)c1-n1c(CC2CC2)nc(=O)c(C(=O)N2CCC(c3ccccc3F)C2)c1O` (single isomer, unassigned) [Example 226, 2-(cyclopropylmethyl)-1-(2,6-dimethoxyphenyl)-5-[3-(2-fluorophenyl)pyrrolidine-1-carbonyl]-6-hydroxy-1,4-dihydropyrimidin-4-one]: the EC50 was in the range of 0.01 to 10 nM.
As for `COc1cccc(OC)c1-n1c(CC2CC2)nc(=O)c(C(=O)N2CCC(c3ccc(Cl)cc3)C2)c1O` (single isomer, unassigned) [Example 228, 5-[3-(4-chlorophenyl)pyrrolidine-1-carbonyl]-2-(cyclopropylmethyl)-1-(2,6-dimethoxyphenyl)-6-hydroxy-1,4-dihydropyrimidin-4-one], the EC50 was 0.01 to 10 nM.
Same read-out and setting: with `COc1cccc(OC)c1-n1c(-c2ccc(F)cc2)nc(=O)c(C(=O)N2CCC(c3ccccc3Cl)C2)c1O` (single isomer, unassigned) [Example 229, 5-[3-(2-chlorophenyl)pyrrolidine-1-carbonyl]-1-(2,6-dimethoxyphenyl)-2-(4-fluorophenyl)-6-hydroxy-1,4-dihydropyrimidin-4-one] the figure was 0.01 to 10 nM; with `COc1cccc(OC)c1-n1c(CC2CC2)nc(=O)c(C(=O)N2CCC(c3ccncc3)C2)c1O` (single isomer, unassigned) [Example 230, 2-(cyclopropylmethyl)-1-(2,6-dimethoxyphenyl)-6-hydroxy-5-[3-(pyridin-4-yl)pyrrolidine-1-carbonyl]-1,4-dihydropyrimidin-4-one], 10 to 100 nM; with `COc1cccc(OC)c1-n1c(Cc2ccc(F)cc2)nc(=O)c(C(=O)N2CCC(c3ccccc3F)C2)c1O` (single isomer, unassigned) [Example 231, 1-(2,6-dimethoxyphenyl)-2-[(4-fluorophenyl)methyl]-5-[3-(2-fluorophenyl)pyrrolidine-1-carbonyl]-6-hydroxy-1,4-dihydropyrimidin-4-one], 10 to 100 nM.
Regarding `COc1cccc(OC)c1-n1c(-c2cncc(C)c2)nc(=O)c(C(=O)N2CCC(c3ccc(F)cc3)C2)c1O` (single isomer, unassigned) [Example 232, 1-(2,6-dimethoxyphenyl)-5-[3-(4-fluorophenyl)pyrrolidine-1-carbonyl]-6-hydroxy-2-(5-methylpyridin-3-yl)-1,4-dihydropyrimidin-4-one], the EC50 lay in the range of 0.01 to 10 nM.
As for `COc1cccc(OC)c1-n1c(-c2cncc(C)c2)nc(=O)c(C(=O)N2CCC(c3ccccc3F)C2)c1O` (single isomer, unassigned) [Example 233, 1-(2,6-dimethoxyphenyl)-5-[3-(2-fluorophenyl)pyrrolidine-1-carbonyl]-6-hydroxy-2-(5-methylpyridin-3-yl)-1,4-dihydropyrimidin-4-one], the EC50 lay within 0.01 to 10 nM.
As to `COc1ccccc1C1CCN(C(=O)c2c(O)n(-c3c(OC)cccc3OC)c(-c3cncc(C)c3)nc2=O)C1` (single isomer, unassigned) [Example 234, 1-(2,6-dimethoxyphenyl)-6-hydroxy-5-[3-(2-methoxyphenyl)pyrrolidine-1-carbonyl]-2-(5-methylpyridin-3-yl)-1,4-dihydropyrimidin-4-one], the EC50 lay in the range of 0.01 to 10 nM.
Same read-out and setting: with `COc1cccc(OC)c1-n1c(-c2cccc(C)n2)nc(=O)c(C(=O)N2CCC(c3ncc(F)cc3F)C2)c1O` (single isomer, unassigned) [Example 235, 5-[3-(3,5-difluoropyridin-2-yl)pyrrolidine-1-carbonyl]-1-(2,6-dimethoxyphenyl)-6-hydroxy-2-(6-methylpyridin-2-yl)-1,4-dihydropyrimidin-4-one] the figure was 0.01 to 10 nM.
As to `COc1cccc(OC)c1-n1c(-c2cccc(C)n2)nc(=O)c(C(=O)N2CCC(c3ccccc3F)C2)c1O` (single isomer, unassigned) [Example 236, 1-(2,6-dimethoxyphenyl)-5-[3-(2-fluorophenyl)pyrrolidine-1-carbonyl]-6-hydroxy-2-(6-methylpyridin-2-yl)-1,4-dihydropyrimidin-4-one], the EC50 lay in the range of 0.01 to 10 nM.
Consider `COc1cccc(OC)c1-n1c(-c2cccc(Cl)c2)nc(=O)c(C(=O)N2CCC(c3ccccc3C#N)C2)c1O` (single isomer, unassigned) [Example 237, 2-{1-[2-(3-chlorophenyl)-1-(2,6-dimethoxyphenyl)-6-hydroxy-4-oxo-1,4-dihydropyrimidine-5-carbonyl]pyrrolidin-3-yl}benzonitrile], for which the EC50 fell in the range of 0.01 to 10 nM.

Staying with this assay, now noted: human APJ, intracellular cAMP accumulation; read-out: hAPJ cAMP EC50 Potency range.
In the case of `CC[C@@H](c1cc(F)cc(F)c1)n1c(-c2nc(C)cs2)nc(=O)c(C(=O)N2CCC(c3ncccc3F)C2)c1O` (single isomer, unassigned) [Example 204], the EC50 lay in the range of 0.01 to 10 nM.
On to `CC[C@@H](c1cc(F)cc(F)c1)n1c(-c2nc(C)cs2)nc(=O)c(C(=O)N2CCC(c3cc(F)ccn3)C2)c1O` (single isomer, unassigned) [Example 205], for which the EC50 fell in the range of 0.01 to 10 nM.
For `CC[C@@H](c1cc(F)cc(F)c1)n1c(-c2nc(C)cs2)nc(=O)c(C(=O)N2CCC(c3ccc(F)cn3)C2)c1O` (single isomer, unassigned) [Example 206], the EC50 was 0.01 to 10 nM.
On the same count and under the same terms, the figure for `CC[C@@H](c1cc(F)cc(F)c1)n1c(-c2nc(C)cs2)nc(=O)c(C(=O)N2CCC(c3ccccc3OC)C2)c1O` (single isomer, unassigned) [Example 207] is 0.01 to 10 nM; for `CC[C@@H](c1cc(F)cc(F)c1)n1c(-c2nc(C)cs2)nc(=O)c(C(=O)N2CCC(c3ccccc3F)C2)c1O` (single isomer, unassigned) [Example 208] it is 0.01 to 10 nM.
The same measure, in the same setting: the figure for `CC[C@@H](c1cc(F)cc(F)c1)n1c(-c2nc(C)cs2)nc(=O)c(C(=O)N2CCC(c3ccc(Cl)cn3)C2)c1O` (single isomer, unassigned) [Example 209] is 0.01 to 10 nM.
Take `CC[C@@H](c1cc(F)cc(F)c1)n1c(-c2nc(C)cs2)nc(=O)c(C(=O)N2CCC(c3ncc(F)cc3F)C2)c1O` (single isomer, unassigned) [Example 210]: the 50% effective concentration (EC50) fell in the range of 0.01 to 10 nM.
For `CC[C@@H](c1cc(F)cc(F)c1)n1c(-c2nc(C)cs2)nc(=O)c(C(=O)N2CCC(c3ccc(F)cc3)C2)c1O` (single isomer, unassigned) [Example 211], the EC50 is 0.01 to 10 nM.
On the same count and under the same terms, the figure for `CC[C@@H](c1cc(F)cc(F)c1)n1c(-c2ccn(CC)n2)nc(=O)c(C(=O)N2CCC(c3ncccc3F)C2)c1O` (single isomer, unassigned) [Example 212] is 0.01 to 10 nM.
As to `CC[C@@H](c1cc(F)cc(F)c1)n1c(-c2ccn(CC)n2)nc(=O)c(C(=O)N2CCC(c3ccc(Cl)cn3)C2)c1O` (single isomer, unassigned) [Example 213], the EC50 fell in the range of 0.01 to 10 nM.
Take `CC[C@@H](c1cc(F)cc(F)c1)n1c(-c2ccn(CC)n2)nc(=O)c(C(=O)N2CCC(c3ncc(Cl)cc3F)C2)c1O` (single isomer, unassigned) [Example 214]: the EC50 was 0.01 to 10 nM.
Same read-out and setting: the figure for `CC[C@@H](c1cc(F)cc(F)c1)n1c(-c2ccn(CC)n2)nc(=O)c(C(=O)N2CCC(c3ncc(F)cc3F)C2)c1O` (single isomer, unassigned) [Example 215] is 0.01 to 10 nM; for `CC[C@@H](c1cc(F)cc(F)c1)n1c(-c2ccn(CC)n2)nc(=O)c(C(=O)N2CCC(c3ccc(F)cn3)C2)c1O` (single isomer, unassigned) [Example 216] it is 0.01 to 10 nM; for `CC[C@@H](c1cc(F)cc(F)c1)n1c(-c2cnn(C)c2)nc(=O)c(C(=O)N2CCC(c3ncc(F)cc3F)C2)c1O` (single isomer, unassigned) [Example 217] it is 0.01 to 10 nM.
On the same count and under the same terms, the figure for `CC[C@@H](c1cc(F)cc(F)c1)n1c(-c2cnn(C)c2)nc(=O)c(C(=O)N2CCC(c3ccc(Cl)cn3)C2)c1O` (single isomer, unassigned) [Example 218] is 0.01 to 10 nM.
For `CC[C@@H](c1cc(F)cc(F)c1)n1c(-c2cnn(C)c2)nc(=O)c(C(=O)N2CCC(c3ncccc3F)C2)c1O` (single isomer, unassigned) [Example 219], the EC50 fell in the range of 0.01 to 10 nM.
Regarding `CC[C@@H](c1cc(F)cc(F)c1)n1c(-c2cnn(C)c2)nc(=O)c(C(=O)N2CCC(c3ccc(F)cn3)C2)c1O` (single isomer, unassigned) [Example 220], the EC50 fell in the range of 0.01 to 10 nM.

These data come from US10590113B2, “6-hydroxy-4-oxo-1,4-dihydropyrimidine-5-carboxamides as APJ agonists” (priority 2016, dated 2020).
